Measurements: patent publication US20240268385A1, “PEST CONTROL COMPOSITION” (DAIKIN INDUSTRIES, LTD., priority 2021, published 2024)
Read-outs that look alike come from different tables or passages of the source.

How the values were obtained:
[1] = tested on: Bemisia tabaci (Adult Insect); experiment: whole plant or invertebrate; details: in Brassica oleracea, 48 h
Protocol: (§1) 9 parts by mass of a subagent of a formulation (xylene:DMF:Solpol 3005X (Toho Chemical Industry Co., Ltd.)=4:4:1) was mixed with 1 part by mass of dexmedetomidine (Wako) to prepare a 10% emulsion. A diluted solution of the 10% emulsion with a predetermined concentration was prepared by using a spreading agent, Grameen S (Toyo Green Co., Ltd.), diluted 10000-fold with water. Sample crops were individually sprayed with a sufficient amount of the diluted chemical solution by using a spray gun.
(§2) Test Method for Bemisia tabaci (Adult) and Frankliniella Occidentalis (First-Instar Larva)
(§3) After the sample crops were sprayed with the chemical solution, they were air-dried, and then the leaves were cut and stored in cups. While test insects were released, the number of insects released was counted, and the cups were covered with a lid. The mortality rate was calculated from the number of surviving insects after 2 days for Bemisia tabaci and after 5 days for Frankliniella occidentalis. Their corrected mortality rate was calculated from the following formula:
(§4) Corrected mortality rate (%)=[(survival rate of untreated group−survival rate of treated group)/survival rate of untreated group]×100

[2] = tested on: Frankliniella occidentalis (First-instar Larva); experiment: whole plant or invertebrate; details: in Brassica oleracea, 120 h
Protocol: as §1, §2, §3, §4

[3] = tested on: Nephotettix cincticeps (Three-instar Larva); experiment: whole plant or invertebrate; details: in Oryza sativa, 144 h
Protocol: as §1
(§5) Test Method for Nilaparvata lugens (Third-Instar Larva) and Nephotettix cincticeps (Third-Instar Larvae)
(§6) After the sample crops were sprayed with the chemical solution, they were air-dried, and 10 test insects were released. To prevent the escape of the test insects, plants were covered with cups and nylon gauze. The mortality rate was calculated from the number of surviving insects after 6 days, and the corrected mortality rate was calculated from the following formula:
as §4

[4] = tested on: Nilaparvata lugens (Three-instar Larva); experiment: whole plant or invertebrate; details: in Oryza sativa, 144 h
Protocol: as §1, §5, §6, §4

[5] = tested on: blast disease pathogens; details: 500 ppm spray, rice seedlings at 2.5-leaf stage, 8 days in humid room
Protocol: as §1
Test Method for Blast Disease Pathogen
Seedlings at the 2.5-leaf stage were sprayed with the chemical solution, and placed in a humid room for 8 days with blast disease pathogens, followed by measuring the area of lesions. The preventive value was calculated from the ratio to the untreated group according to the following formula (N):
(§7) Preventive value=100−(damage in treated group/damage in untreated group)×100 (N)

[6] = tested on: brown blotch disease pathogens; details: 500 ppm spray, cucumbers at 2-leaf stage, 8 days in humid room
Protocol: as §1, §7
Test Method for Brown Blotch Disease Pathogen
Cucumbers at the 2-leaf stage were sprayed with the chemical solution and inoculated with a spray of a spore suspension of brown blotch disease pathogens, and then placed in a humid room for 8 days. The area of lesions on leaves was measured, and the preventive value was calculated according to formula (N).

[7] = tested on: sheath blight fungi; details: 500 ppm spray, rice plants at 5-leaf stage, 6 days in humid room
[8] = tested on: phytophthora disease pathogens; details: in vivo
[9] = read-out: Insect Mortality Rate
[10] = read-out: Insect Mortality Rate (Corrected)

**Q.** What does the source list for `Cc1cccc([C@H](C)c2cnc[nH]2)c1C` [Chemical Agent, dexmedetomidine]?
**A.** mortality at 100 ppm [1, 9]: 100%; mortality at 500 ppm [1, 9]: 100%; mortality at 100 ppm [1, 10]: 100%; mortality at 500 ppm [1, 10]: 100%; mortality at 100 ppm [2, 9]: 100%; mortality at 500 ppm [2, 9]: 100%; mortality at 100 ppm [2, 10]: 100%; mortality at 500 ppm [2, 10]: 100%; mortality at 100 ppm [3, 9]: 100%; mortality at 500 ppm [3, 9]: 100%; mortality at 100 ppm [3, 10]: 100%; mortality at 500 ppm [3, 10]: 100%; mortality at 100 ppm [4, 9]: 100%; mortality at 500 ppm [4, 9]: 100%; mortality at 100 ppm [4, 10]: 100%; mortality at 500 ppm [4, 10]: 100%; Blast Disease Expansion Area Percentage [5]: 0%; Blast Disease Preventive Value [5]: 100; Brown Blotch Disease Expansion Area [6]: 2%; Brown Blotch Disease Preventive Value [6]: 86; Sheath Blight Disease Lesion Elongation [7]: 3 mm; Sheath Blight Disease Preventive Value [7]: 98; Phytophthora Expansion Area [8]: 15%; Phytophthora Preventive Value [8]: 84
